Results published in paper PMC7801115, “Preclinical in vitro screening of newly synthesised amidino substituted benzimidazoles and benzothiazoles” (Journal of Enzyme Inhibition and Medicinal Chemistry, 2021).

Legend:
[1] = Chromatographic lipophilicity study (Chrom logD7.4); format: physicochemical; settings: gradient reverse-phase HPLC (Phenomenex Luna C18 column); pH 7.4, gradient reverse-phase HPLC, from CHI7.4
Description: In order to determine the lipophilicity range, Chromatographic Hydrophobicity Index was measured by gradient reverse-phase HPLC at physiological pH. Sample working solutions were prepared from 10 mM DMSO stock solutions by dilution with acetonitrile to a final concentration of 1.25 mM and analysed on Agilent 1100 Series liquid chromatography system with HPLC diode-array detector (DAD) coupled with Micromass Quattro micro API mass spectrometer. Samples were injected onto an HPLC column (Phenomenex Luna C18, 50 × 3 mm, 5 µm) and eluted with a gradient at room temperature (sample temperature 15 °C). The mobile phase was composed of 50 mM Ammonium acetate, pH = 7.4 and acetonitrille. A total run time was 5 min, with the flow rate of 1 ml/min (under gradient conditions). The HPLC system was initially calibrated using the calibration set of 10 compounds with literature CHI values. The experimentally determined gradient retention times were plotted against the CHI7.4 values published in the literature resulting in the equation obtained from linear regression analysis. This equation was further used for the calculation of CHI7.4 for test compounds from determined retention times of the main chromatographic peak from UV chromatogram for each compound. The obtained CHI7.4 values were further converted to Chrom log D7.4 as follows: CHI7.4 × 0.0857 − 2.

HCC827 = test: BrdU proliferation assay, 3D cell culture; format: cell-based; settings: Homo sapiens, HCC827, 3D cell culture, ±SD, N = 2
Description: Cells were grown in 96 well Perfecta 3 D hanging drop plates 5000 cell/well for 4 days until spheres were formed (and checked under the microscope). After sphere formation cells were treated with compounds followed by 72 h incubation. Cell viability assay was performed according to the manufacturer’s instruction, using CellTiter GLO 3 D for 3 D cell culture (Promega); cell incubation was 5 min on the shaker followed by 25 min incubation in the dark. Plates were read using PE EnVision luminescence.
Proliferation assay was performed using Cell Proliferation ELISA, BrdU (Sigma, St. Louis, MO, USA). Briefly, 48 h hours after compound addition, 10 µM of BrdU was added to each well and incubated for following 24 h. After incubation, single cell suspension was made for 3 D cell culture in the new 96 well plate. Plates were centrifuged and supernatants were removed from each plate (for 2 D and 3 D cell culture) followed by 60 min incubation at 60° C. The rest of the proliferation assay was performed according to the manufacturer instructions.
Calculation of IC50 data, curves and QC analysis is made by using Excel tools and GraphPadPrism software (La Jolla, CA), v. […] QC criteria parameters (Z', S:B, R2, HillSlope) were checked for every IC50 curve.

[2] = test system: P-glycoprotein (human MDR1); test: MDCKII-MDR1 permeability and P-glycoprotein substrate assay; format: in vitro ADME, canine cells over-expressing human MDR1; settings: dog; for efflux ratio at 60 min, 10 µM: MDCK-MDR1, pH 7.4, without P-gp inhibitor; for Papp A→B at 60 min, 10 µM / Papp B→A at 60 min, 10 µM: MDCK-MDR1, pH 7.4, without P-gp inhibitor; for Papp A→B at 60 min, 10 µM: read-out: MDCKII-MDR1 Papp(A2B); for Papp B→A at 60 min, 10 µM: read-out: MDCKII-MDR1 Papp(B2A)
Description: Permeability and P-glycoprotein substrate assessment was done on MDCKII-hMDR1, Madin-Darby canine epithelial cells over-expressing human MDR1 gene, coding for P-glycoprotein.
Cells were prepared for transport studies by seeding on 96-well cell culture inserts (Millipore, MA, USA) in a concentration of 0.25 × 10^6 cells per ml. The cells were fed with fresh medium 24 h post seeding and cultured to confluence for 3 days before use. On the day of experiment, the cell monolayers were washed and equilibrated with transport medium (DPBS, pH 7.4 containing 1% DMSO) with or without P-gp specific inhibitor, elacridar (2 µM) for 45 min (37 °C, 5% CO2, 95% humidity). Test compound solution consisted of test substance (10 μM) in D-PBS medium containing lucifer yellow (100 μM) and 1% DMSO. Transport assays were conducted in apical to basolateral (A2B) and basolateral to apical (B2A) directions, respectively. Monolayers were incubated with the compound solution for 60 min at 37 °C under gentle agitation. Apical and basolateral compartments were sampled at the end of the transport experiment, while donor solutions were also sampled at the beginning of the experiment in order to determine initial concentration. Test substance concentrations in both compartments were determined by LC-MS/MS. There were several controls used in the assay: 1) amprenavir (0.5 μM) served as a low permeable control, being also a P-gp substrate; 2) diclofenac (10 μM) was used as a high permeable control; 3) Lucifer yellow, a fluorescent marker for the paracellular membrane transport, was used as a control of cell monolayer integrity.
All ADME samples were analysed on a Sciex API 4000 or Sciex API4500 Triple Quadrupole Mass Spectrometer (Sciex, Framingham, MA, USA) coupled to a UHPLC System (Shimadzu Nexera X2; Shimadzu, Kyoto, Japan). Samples were injected onto an UPLC column (HALO2 C18, 2.1 × 20 mm, 2 µm or Phenomenex Luna Omega Polar C18, 30 × 2.1 mm, 1.6 µm) and eluted with a gradient at temperature of 50 °C. The mobile phase was composed of acetonitrile (with 0.1% formic acid) and 0.1% formic acid in deionised water. A total run time was 1 or 1.5 min, with the flow rate of 0.7 ml/min (under gradient conditions). A positive ion mode with turbo spray, an ion source temperature of 500 °C and a dwell time of 150 ms were utilised for mass spectrometric detection. Multiple reaction monitoring (MRM) was used at the specific transitions for each compound/control tested: compound 5c: 361.9 → 304.9; compound 5d: 344.8 → 287.9; compound 5e: 349.8 → 292.9; compound 5 g: 350.8 → 293.9; compound 5 h: 344.0 → 286.9; compound 6a: 276.9 → 220.0; compound 5 b: 319.0 → 262.0; compound 6 b: 302.1 → 245.1; compound 6c: 344.9 → 288.0; compound 6d: 333.0 → 276.0; compound 6e: 316.1 → 259.0; compound 6f: 327.1 → 270.0; compound 6 g: 377.1 → 320.1; testosterone: 289.3→ 97.1; propranolol: 260.1 → 182.8; caffeine: 195.2 → 138.1; acebutolol: 337.2 → 116.2, nicardipine: 480.2 → 315.0; verapamil: 455.4 → 165.1; amprenavir: 506.2 → 245.4; diclofenac: 296.1 → 213.7 or 296.2 → 215.3; eucatropine: 292.2 → 109.1; benfluorex: 352.1 → 230.3, and warfarin: 309.2 → 163.2

| Structure (SMILES) | chromatographic logD [1] | IC50 (HCC827) | efflux ratio at 60 min, 10 µM [2] | Papp A→B at 60 min, 10 µM [2] | Papp B→A at 60 min, 10 µM [2] |
| --- | --- | --- | --- | --- | --- |
| c1ccc2c(c1)cc(-c1nc3cc(C4=NCCCN4)ccc3[nH]1)c1ccccc12 [Compound 6g, 2-(Phenanthrene-9-yl)-5(6)–(3,4,5,6-tetrahydropyrimidin-1-ium-2-yl)benzimidazole chloride] | 3.27 | > 100 µM | 6.6 | 0.02 ×10⁻⁶ cm/s | 0.2 ×10⁻⁶ cm/s |
| N#Cc1ccc(-c2nc3cc(C4=NCCCN4)ccc3[nH]2)cc1 [Compound 6b, 2–(4-Cyanophenyl)-5(6)–(3,4,5,6-tetrahydropyrimidin-1-ium-2-yl)benzimidazole chloride] | 1.17 | > 100 µM | < 2 | 0.92 ×10⁻⁶ cm/s | 1.02 ×10⁻⁶ cm/s |
| Cl.c1ccc2sc(-c3nc4ccc(C5=NCCCN5)cc4s3)cc2c1 [Compound 5e, 2-(Benzo[b]thiophen-2-yl)-6–(3,4,5,6-tetrahydropyrimidin-1-ium-2-yl)benzothiazole chloride] | 3.19 | 24 ± 7.63 µM | > 78 | < 0.1 ×10⁻⁶ cm/s | 7.6 ×10⁻⁶ cm/s |
| c1ccc2cc(-c3nc4cc(C5=NCCCN5)ccc4[nH]3)ccc2c1 [Compound 6f, 2-(Naphthalene-2-yl)-5(6)–(3,4,5,6-tetrahydropyrimidin-1-ium-2-yl)benzimidazole chloride] | 2.18 | > 100 µM | 3.23 | 0.78 ×10⁻⁶ cm/s | 2.49 ×10⁻⁶ cm/s |
| Cl.c1ccc2sc(-c3nc4ccc(C5=NCCCN5)cc4s3)nc2c1 [Compound 5g, 2-(Benzothiazole-2-yl)-6–(3,4,5,6-tetrahydropyrimidin-1-ium-2-yl)benzothiazole chloride] | 2.71 | 17 ± 0.93 µM | > 17 | < 0.1 ×10⁻⁶ cm/s | 16.5 ×10⁻⁶ cm/s |
| Cl.c1ccc2nc(-c3nc4ccc(C5=NCCCN5)cc4s3)ccc2c1 [Compound 5d, 2-(Quinoline-2-yl)-6–(3,4,5,6-tetrahydropyrimidin-1-ium-2-yl)benzothiazole chloride] | 2.87 | 32 ± 11.7 µM | > 158 | < 0.1 ×10⁻⁶ cm/s | 15.8 ×10⁻⁶ cm/s |
| c1ccc2sc(-c3nc4cc(C5=NCCCN5)ccc4[nH]3)cc2c1 [Compound 6d, 2-(Benzo[b]thiophen-2-yl)-5(6)–(3,4,5,6-tetrahydropyrimidin-1-ium-2-yl)benzimidazole chloride] | 2.43 | > 100 µM | 7.75 | 0.11 ×10⁻⁶ cm/s | 0.86 ×10⁻⁶ cm/s |
| FC(F)(F)c1ccc(-c2nc3cc(C4=NCCCN4)ccc3[nH]2)cc1 [Compound 6c, 2–(4-Trifluoromethylphenyl)-5(6)–(3,4,5,6-tetrahydropyrimidin-1-ium-2-yl)benzimidazole chloride] | 2.6 | > 100 µM | 2.82 | 0.69 ×10⁻⁶ cm/s | 1.93 ×10⁻⁶ cm/s |
| Cl.N#Cc1ccc(-c2nc3ccc(C4=NCCCN4)cc3s2)cc1 [Compound 5b, 2–(4-Cyanophenyl)-6–(3,4,5,6-tetrahydropyrimidin-1-ium-2-yl)benzothiazole chloride] | 2.18 | > 100 µM | 35.4 | 0.59 ×10⁻⁶ cm/s | 20.5 ×10⁻⁶ cm/s |
| c1ccc2c(-c3nc4ccc(C5=NCCCN5)cc4[nH]3)c[nH]c2c1 [Compound 6e, 2-(1H-Indol-3-yl)-5(6)–(3,4,5,6-tetrahydropyrimidin-1-ium-2-yl)benzimidazole chloride] | 1.38 | > 100 µM | 3.89 | 0.57 ×10⁻⁶ cm/s | 2.17 ×10⁻⁶ cm/s |
| Cl.c1ccc2cc(-c3nc4ccc(C5=NCCCN5)cc4s3)ccc2c1 [Compound 5h, 2-(Naphthalene-2-yl)-6–(3,4,5,6-tetrahydropyrimidin-1-ium-2-yl)benzothiazole chloride] | 3.31 | 12 ± 0.26 µM | > 77 | < 0.1 ×10⁻⁶ cm/s | 7.7 ×10⁻⁶ cm/s |
| Cl.FC(F)(F)c1ccc(-c2nc3ccc(C4=NCCCN4)cc3s2)cc1 [Compound 5c, 2–(4-Trifluoromethylphenyl)-6–(3,4,5,6-tetrahydropyrimidin-1-ium-2-yl)benzothiazole chloride] | 3.31 | 21 ± 1.41 µM | > 200 | < 0.1 ×10⁻⁶ cm/s | 21.5 ×10⁻⁶ cm/s |
| c1ccc(-c2nc3cc(C4=NCCCN4)ccc3[nH]2)cc1 [Compound 6a, 2-Phenyl-5(6)–(3,4,5,6-tetrahydropyrimidin-1-ium-2-yl)benzimidazole chloride] | 0.92 | 12 ± 0.25 µM | 3.7 | 0.4 ×10⁻⁶ cm/s | 1.4 ×10⁻⁶ cm/s |
